Laboratory results as given in US20030095958A1, “Inhibitors of bace” (priority 2001, published 2003).

Target: BACE (Homo sapiens, UniProt P56817)
Assay: Ki Determination for the Inhibition of BACE (FS-1 peptide fluorescence cleavage assay)
Format: biochemical
Settings: apparent Ki; 50 nM BACE, 10 μM FS-1 substrate, 0.1M sodium acetate pH 4.5
Protocol: Compounds were tested against BACE activity using the following modifications of the method described in J. Ermolieff et al. (2000) Biochemistry 39(51):16263.
All compound evaluations were performed in 0.1M sodium acetate (buffer), pH, 4.5, 10 μM substrate (FS-1 peptide as described in the reference above; this is commercially available), varying concentrations of the test compound or control (DMSO to yeild 2% vol/vol), and 50 nM BACE. The assay volume is 100 μL.
Two microliters of the test compound dissolved in DMSO are added to each well in a 96-well microtiter plate. Seventy eight microliters of BACE are mixed with buffer and added to each well then incubated at room temperature for 15 minutes. A stock solution of 50 μM FS-1 substrate was prepared by addition of an aliquot of FS-1 substrate which was dissolved in DMSO to the buffer and mixed well. The reaction is initiated by addition of 20 μL of the FS-1 mix to the remaining, preincubated assay components. The cleavage reaction of substrate to product is measured using a Molecular Devices fluorescence plate reader with the excitation and emission filter pairs of 355 nm and 495 nm, respectively. Apparent Ki values are determined by fitting the data to the integrated equation for competitive tight binding inhibition.

Chain of BACE (P56817 46-501): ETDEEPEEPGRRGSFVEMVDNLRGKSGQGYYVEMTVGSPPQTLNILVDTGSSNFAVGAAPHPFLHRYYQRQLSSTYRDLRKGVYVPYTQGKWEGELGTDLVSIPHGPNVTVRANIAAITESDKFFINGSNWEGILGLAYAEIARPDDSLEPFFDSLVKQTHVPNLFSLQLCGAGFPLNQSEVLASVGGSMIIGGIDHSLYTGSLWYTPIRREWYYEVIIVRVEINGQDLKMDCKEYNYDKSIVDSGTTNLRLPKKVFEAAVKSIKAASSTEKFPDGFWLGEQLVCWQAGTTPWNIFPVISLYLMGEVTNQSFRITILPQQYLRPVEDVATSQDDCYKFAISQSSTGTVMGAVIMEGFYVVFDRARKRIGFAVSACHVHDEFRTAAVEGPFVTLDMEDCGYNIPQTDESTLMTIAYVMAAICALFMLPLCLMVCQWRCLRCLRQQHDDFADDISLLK

SMILES	Ki
Fc1cccc(F)c1-c1cc(COc2ccccc2C(F)(F)F)c(C2=CCNCC2)cc1COc1ccccc1C(F)(F)F [Compound 349, 4-[2′,6′-Difluoro-2,5-bis-(2-trifluoromethyl-phenoxymethyl)-biphenyl-4-yl]-1,2,3,6-tetrahydro-pyridine]	< 3 µM
FC(F)(F)c1cccc(OCc2ccc(COc3ccccc3C(F)(F)F)cc2C2=CCNCC2)c1 [Compound 324, 4-[5-(2-Trifluoromethyl-phenoxymethyl)-2-(3-trifluoromethyl-phenoxymethyl)-phenyl]-1,2,3,6-tetrahydro-pyridine]	< 3 µM
O=c1cc(-c2ccccc2)nc(C2CCNCC2)n1Cc1ccccc1C(F)(F)F [Compound 214, 6-Phenyl-2-piperidin-4-yl-3-(2-trifluoromethyl-benzyl)-3H-pyrimidin-4-one]	3 to 30 µM
O=S(=O)(Nc1cc(C(F)(F)F)ccc1N1CCNCC1)c1cccc2ccccc12 [Compound 135, Naphthalene-1-sulfonic acid (2-piperazin-1-yl-5-trifluoromethyl-phenyl)-amide]	> 30 µM
Cc1cc(Cl)ccc1OCCCC(=O)N1CCNCC1C(=O)Nc1ccc2ccccc2c1 (stereo not drawn) [Compound 200, 1-[4-(4-Chloro-2-methyl-phenoxy)-butyryl]-piperazine-2-carboxylic acid naphthalen-2-ylamide]	> 30 µM
O=C(Nc1ccccc1)C1CNCCC1c1ccc(COc2ccccc2C(F)(F)F)cc1 (stereo not drawn) [Compound 204]	> 30 µM
O=S(=O)(Nc1cc(-c2ccc(Cl)c(Cl)c2)ccc1N1CCNCC1)c1ccc(-c2ccc(Cl)cc2)cc1 [Compound 181, 4′-Chloro-biphenyl-4-sulfonic acid (3′,4′-dichloro-4-piperazin-1-yl-biphenyl-3-yl)-amide]	3 to 30 µM
O=C(Nc1cc(-c2ccc(C(F)(F)F)cc2F)ccc1N1CCNCC1)c1cccc2ccccc12 [Compound 161, Naphthalene-1-carboxylic acid (2′-fluoro-4-piperazin-1-yl-4′-trifluoromethyl-biphenyl-3-yl)-amide]	3 to 30 µM

Now from value to molecule:

Ki	SMILES
3 to 30 µM	Nc1cccc2c(NC(=O)c3ccc(COc4ccccc4C(F)(F)F)cc3C3=CCNCC3)cccc12 [Compound 310, N-(5-Amino-naphthalen-1-yl)-2-(1,2,3,6-tetrahydro-pyridin-4-yl)-4-(2-trifluoromethyl-phenoxymethyl)-benzamide]
< 3 µM	N#Cc1ccccc1-c1ccc(COc2ccc3c(c2)c2c(n3Cc3ccc4ccccc4c3)CNCC2)cc1 [Compound 531, 4′-(9-Naphthalen-2-ylmethyl-2,3,4,9-tetrahydro-1H-b-carbolin-6-yloxymethyl)-biphenyl-2-carbonitrile]
3 to 30 µM	COc1ccc(-c2ccc(N3CCNCC3)c(NC(=O)c3cccc4ccccc34)c2)cc1 [Compound 120, Naphthalene-1-carboxylic acid (4′-methoxy-4-piperazin-1-yl-biphenyl-3-yl)-amide]
< 3 µM	Ic1ccccc1COc1ccc2c(c1)c1c(n2Cc2cccc3ccccc23)CNCC1 [Compound 520, 6-(2-Iodo-benzyloxy)-9-naphthalen-1-ylmethyl-2,3,4,9-tetrahydro-1H-b-carboline]
3 to 30 µM	CC(NC(=O)C1CNCCC1c1ccc(-c2ccccc2)cc1)c1cccc2ccccc12 (stereo not drawn) [Compound 406]
< 3 µM	Nc1ccc(-c2cc(COc3ccccc3C(F)(F)F)c(C3=CCNCC3)cc2COc2ccccc2C(F)(F)F)cc1 [Compound 359, 4′-(1,2,3,6-Tetrahydro-pyridin-4-yl)-2′,5′-bis-(2-trifluoromethyl-phenoxymethyl)-biphenyl-4-ylamine]
< 3 µM	COc1cc(COc2ccc3c(c2)c2c(n3C(=O)c3cccc4ccccc34)CNCC2)cc(OC)c1 [Compound 526, [6-(3,5-Dimethoxy-benzyloxy)-1,2,3,4-tetrahydro-b-carbolin-9-yl]-naphthalen-1-yl-methanone]
